From patent US4895834A, “Renin inhibitors III” (Warner-Lambert Company, priority 1987, dated 1990)

The molecules below were run against T1, renin (Homo sapiens, UniProt P00797) (assay: in vitro renin inhibitory activity, radioimmunoassay for angiotensin I). Conditions: molar concentration causing 50% inhibition of renin activity; renin incubated two hours at 37° with angiotensinogen.
T1 sequence (P00797 67-406): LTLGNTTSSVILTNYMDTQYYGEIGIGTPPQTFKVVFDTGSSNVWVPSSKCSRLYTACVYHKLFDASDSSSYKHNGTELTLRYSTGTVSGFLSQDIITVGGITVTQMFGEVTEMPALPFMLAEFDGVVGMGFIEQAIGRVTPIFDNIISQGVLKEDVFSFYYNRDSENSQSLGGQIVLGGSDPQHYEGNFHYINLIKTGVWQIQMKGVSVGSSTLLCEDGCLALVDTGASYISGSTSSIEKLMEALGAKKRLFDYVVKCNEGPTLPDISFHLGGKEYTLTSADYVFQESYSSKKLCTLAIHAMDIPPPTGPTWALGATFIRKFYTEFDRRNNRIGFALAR
Assay type: biochemical
Description: The effectiveness of the aforementioned compound is determined by a test for in vitro renin inhibitory activity. This activity is determined by a standard radioimmunoassay for angiotensin I. In this assay the enzyme, renin, incubated for two hours at 37° in the presence of a substrate, angiotensinogen, generates the product, angiotensin I. Test compounds are added to the incubation mixture. Relative activity is reported as the IC50, which is the molar concentration of test compound causing a 50% inhibition of the renin activity.

Point of comparison: `CC(C)C[C@H](NC(=O)[C@H](Cc1c[nH]cn1)NC(=O)C(Cc1cccc2ccccc12)Cc1cccc2ccccc12)[C@@H](O)CC(=O)NCC(O)CS(=O)(=O)C(C)C` (some centres unmarked) [Example 4, DNMA-HIS-STA-NHCH2 CH(OH)CH2 SO2 CH(CH3)2], IC50 0.082 µM. Against it:
- CC[C@H](C)CNC(=O)C[C@H](O)[C@H](CC(C)C)NC(=O)[C@H](Cc1c[nH]cn1)NC(=O)C(Cc1cccc2ccccc12)C(=O)OC(C)(C)C (some centres unmarked) [Example 2] — 6.8-fold higher, 0.56 µM
- CC(C)C[C@H](NC(=O)[C@H](Cc1c[nH]cn1)NC(=O)C(Cc1cccc2ccccc12)Cc1cccc2ccccc12)[C@@H](O)CC(=O)NCC(O)CSC(C)C (some centres unmarked) [Example 3, DNMA-HIS-STA-NHCH2 CH(OH)CH2 SCH(CH3)2] — 2.7-fold higher, 0.22 µM
- CC(C)C[C@H](NC(=O)C[C@H](O)[C@H](CC(C)C)NC(=O)[C@H](Cc1c[nH]cn1)NC(=O)C(Cc1ccccc1)SCc1ccccc1)C(=O)NCc1ccccc1 (some centres unmarked) [Example 11] — 27-fold higher, 2.2 µM
- CC(C)C[C@H](NC(=O)C[C@H](O)[C@H](CC1CCCCC1)NC(=O)[C@H](CC(=O)O)NC(=O)C(Cc1cccc2ccccc12)Cc1cccc2ccccc12)C(=O)NCc1ccccc1 [Example 17, DNMA-ASP-CYSTA-LEU-NHCH2 Ph] — 12-fold higher, 0.98 µM
- CC(C)C[C@H](NC(=O)C[C@H](O)[C@H](CC(C)C)NC(=O)[C@H](Cc1cnc[nH]1)N(C)C(=O)C(Cc1cccc2ccccc12)Cc1cccc2ccccc12)C(=O)NCc1ccccc1 [Example 20, DNMA-(N-MeHIS)-STA-LEU-NHCH2 Ph] — 50-fold higher, 4.1 µM
- CC(C)C[C@H](NC(=O)[C@H](Cc1c[nH]cn1)NC(=O)C(Cc1cccc2ccccc12)Cc1cccc2ccccc12)[C@@H](O)CC(=O)NCc1cccc(CNC(=O)OCc2ccccc2)c1 [Example 22] — 49-fold higher, 4 µM

The molecules below were run on renin maintained blood pressure (Hog renin infused) (assay: lowering renin maintained blood pressure in the anesthetized, vagotomized, ganglionic-blocked rat (hog renin infused)). Conditions: 1 mg/kg IV.
Assay type: in vivo
Description: The effectiveness of the aforementioned compounds in vivo is determined by their effect on lowering renin maintained blood pressure in the anesthetized, vagotomized, ganglionic-blocked rat.
After the blood pressure has stabilized, 1.25 mg/kg IV mecamylamine is added to produce ganglionic blockade. Hog renin is then infused to bring the blood pressure to a level observed before vagotomy and ganglionic blockade. Test compound is then administered IV and the drop in blood pressure is noted.
The compound was administered at as dose of 1 mg/kg.

`CC(C)C[C@H](NC(=O)C[C@H](O)[C@H](CC(C)C)NC(=O)[C@H](Cc1c[nH]cn1)NC(=O)C(Cc1cccc2ccccc12)Cc1cccc2ccccc12)C(=O)NCc1ccccc1` [Example 1, DNMA-HIS-STA-LEU-NHCH2 Ph] was tested, and the “Percent Decrease of Blood Pressure” value was 65%.
